± gives the expanded uncertainty stated by the source. Each block holds one compound with its values, some of them ahead of it.
Legend:
[1] = 101.33 kPa, Liquid, Vibrating tube method
[2] = refractive index (Na D-line) (dimensionless); conditions: 293.15 K; 101.33 kPa; Liquid; Standard Abbe refractometry

SMILES: Cc1ccccc1C [1,2-dimethylbenzene]
mass density ([1]; 293.15 K): 879.79 ± 0.23 kg/m3
mass density ([1]; 298.15 K): 875.58 ± 0.23 kg/m3
mass density ([1]; 303.15 K): 871.37 ± 0.24 kg/m3
mass density ([1]; 313.15 K): 862.78 ± 0.24 kg/m3
mass density ([1]; 323.15 K): 854.02 ± 0.24 kg/m3
mass density ([1]; 333.15 K): 845.2 ± 0.24 kg/m3
refractive index [2]: 1.5015 ± 0.0005

SMILES: Cc1cccc(C)c1 [1,3-dimethylbenzene]
mass density ([1]; 293.15 K): 864.18 ± 0.24 kg/m3
mass density ([1]; 298.15 K): 859.88 ± 0.24 kg/m3
mass density ([1]; 303.15 K): 855.56 ± 0.24 kg/m3
mass density ([1]; 313.15 K): 846.85 ± 0.24 kg/m3
mass density ([1]; 323.15 K): 837.92 ± 0.24 kg/m3
mass density ([1]; 333.15 K): 829.01 ± 0.24 kg/m3
refractive index [2]: 1.4936 ± 0.0005

SMILES: Cc1ccc(C)cc1 [1,4-dimethylbenzene]
mass density ([1]; 293.15 K): 861.02 ± 0.24 kg/m3
mass density ([1]; 298.15 K): 856.68 ± 0.24 kg/m3
mass density ([1]; 303.15 K): 852.33 ± 0.24 kg/m3
mass density ([1]; 313.15 K): 843.59 ± 0.24 kg/m3
mass density ([1]; 323.15 K): 834.81 ± 0.24 kg/m3
mass density ([1]; 333.15 K): 825.96 ± 0.24 kg/m3
refractive index [2]: 1.4922 ± 0.0005

mass density ([1]; 293.15 K): 866.99 ± 0.24 kg/m3
mass density ([1]; 298.15 K): 862.59 ± 0.24 kg/m3
mass density ([1]; 303.15 K): 858.18 ± 0.24 kg/m3
mass density ([1]; 313.15 K): 849.33 ± 0.24 kg/m3
mass density ([1]; 323.15 K): 840.42 ± 0.24 kg/m3
mass density ([1]; 333.15 K): 831.42 ± 0.24 kg/m3
refractive index [2]: 1.4922 ± 0.0005
SMILES: CCc1ccccc1 [ethylbenzene]

SMILES: O=[N+]([O-])c1ccccc1 [nitrobenzene]
mass density ([1]; 293.15 K): 1203.13 ± 0.4 kg/m3
mass density ([1]; 298.15 K): 1198.17 ± 0.39 kg/m3
mass density ([1]; 303.15 K): 1193.21 ± 0.39 kg/m3
mass density ([1]; 313.15 K): 1183.3 ± 0.38 kg/m3
mass density ([1]; 323.15 K): 1173.38 ± 0.37 kg/m3
mass density ([1]; 333.15 K): 1163.45 ± 0.36 kg/m3
refractive index [2]: 1.549 ± 0.0005

SMILES: Cc1ccccc1 [toluene]
mass density ([1]; 293.15 K): 866.89 ± 0.13 kg/m3
mass density ([1]; 298.15 K): 862.24 ± 0.13 kg/m3
mass density ([1]; 303.15 K): 857.58 ± 0.13 kg/m3
mass density ([1]; 313.15 K): 848.2 ± 0.13 kg/m3
mass density ([1]; 323.15 K): 838.76 ± 0.13 kg/m3
mass density ([1]; 333.15 K): 829.22 ± 0.14 kg/m3
refractive index [2]: 1.493 ± 0.0005

SMILES: CCCCN(CCCC)CCCC [tributylamine]
mass density ([1]; 293.15 K): 776.91 ± 0.24 kg/m3
mass density ([1]; 298.15 K): 773.18 ± 0.24 kg/m3
mass density ([1]; 303.15 K): 769.45 ± 0.24 kg/m3
mass density ([1]; 313.15 K): 761.97 ± 0.24 kg/m3
mass density ([1]; 323.15 K): 754.45 ± 0.24 kg/m3
mass density ([1]; 333.15 K): 746.88 ± 0.24 kg/m3
refractive index [2]: 1.4259 ± 0.0005
